Experimental data from publication PMC4394464, “Identification and Pharmacokinetics of Multiple Potential Bioactive Constituents after Oral Administration of Radix Astragali on Cyclophosphamide-Induced Immunosuppression in Balb/c Mice” (International Journal of Molecular Sciences, 2015).
Where two headings read alike, the source gives them in different places.

Legend:
[1] = Pharmacokinetics of five main constituents in immunosuppressive mice plasma after oral administration of RA (HPLC-MS/MS); type: in vivo, Balb/c mice
Protocol: The maximum plasma concentration (Cmax) and the time of maximum plasma concentration (tmax) were obtained from the observed data (Table 3). The plasma concentration-time profiles for calycosin-7-O-glucoside, ononin, calycosin, formononetin and astragaloside IV are shown in Figure 4.
To quantify calycosin-7-O-glucoside, ononin, calycosin, formononetin and astragaloside IV in mice, a 10-μL IS solution was added into 50 μL of plasma and mixed for 30 s. Then, 1 mL ethyl acetate was added to the tube and vortexed for 3 min. […] Ten microliters of the supernatant were injected into the HPLC-MS/MS system.
The quantification was performed by an LC-MS/MS system, which consisted of an Agilent 1200 HPLC series system and an Agilent 6410 triple quadrupole mass spectrometer (Agilent Technol., Santa Clara, CA, USA) equipped with an electrospray ionization source. Samples were separated by a rapid resolution HT C18 column (2.1 mm × 50 mm, 1.8 μm, Agilent Technol.) at 30 °C. The mobile phase consisted of 0.1 formic acid both in methanol (A) and water (B) using a gradient elution program of 25%–50% A (0–5 min) and 50%–90% (5–10 min). The flow rate was 0.2 mL/min, and the injection volume was 10 μL. Detection was performed in the positive ion mode using multiple reaction monitoring (MRM) of the m/z 447.1/285.0 for calycosin-7-O-glucoside, m/z 431.1/269.0 for ononin, m/z 285.0/137.0 for calycosin, m/z 269.0/213.0 for formononetin, m/z 807.4/627.3 for astragaloside IV and m/z 271.1/151.0 for naringenin.

[2] = Profiling of absorbed constituents and metabolites in mice plasma after oral administration of RA (UFLC-DAD-Q-TOF-MS/MS); settings: oral RA extract 6 g/kg BW; cyclophosphamide-induced immunosuppressed Balb/c mice; plasma sampled 0.25-36 h; '-' = not detected
Protocol: The peaks that appeared at the same position in the total ion chromatograms of both the dosed mice bio-samples and the RA extract, but not in the chromatograms of the controlled mice bio-samples, were regarded as absorbed constituents [22].
Following randomization into study groups, mice (6/group/male) received intraperitoneal injection once daily of cyclophosphamide (i.p. 80 mg/kg BW) for 6 days. Additionally, the control group was injected intraperitoneally with sterile physiological saline. […] Plasma was harvested by centrifugation at 3000× g for 10 min and then kept frozen at −70 °C until analysis.
After being vortexed for 1 min, the sample was centrifuged at 13,000× g at 4 °C for 30 min. The supernate was transferred into a fresh tube and evaporated with nitrogen. Then, the residue was dissolved in a 60-μL mobile phase with vortex mixing for 3 min and centrifuged at 13,000× g for 30 min. Finally, 10 μL of the supernatant were injected into the UFLC/DAD/Q-TOF-MS/MS system.
The multiple constituents in RA and the absorbed compounds in mice plasma were identified by the ultra-fast liquid chromatography/diode-array detector/quadrupole time-of-flight tandem mass spectrometry (UFLC/DAD/Q-TOF-MS/MS) method.

[3] = male, mouse, oral RA extract 6 g/kg BW, immunosuppressive Balb/c mice plasma, 0-36 h, read-out: AUC(0–t)
[4] = male, mouse, oral RA extract 6 g/kg BW, immunosuppressive Balb/c mice plasma, read-out: AUC(0–∞)
[5] = male, mouse, oral RA extract 6 g/kg BW, immunosuppressive Balb/c mice plasma, read-out: Cmax
[6] = male, mouse, oral RA extract 6 g/kg BW, immunosuppressive Balb/c mice plasma, read-out: t1/2z (converted)
[7] = male, mouse, oral RA extract 6 g/kg BW, immunosuppressive Balb/c mice plasma, read-out: tmax
[8] = after oral administration of RA, immunosuppressive Balb/c mice plasma
[9] = male, Balb/c, mouse, in vivo, po, 6 g/kg

COc1ccc(-c2coc3cc(O[C@@H]4O[C@H](CO)[C@@H](O)[C@H](O)[C@H]4O)ccc3c2=O)cc1O (single isomer, unassigned) [Peak 29, Calycosin-7-O-glucoside]
AUC(0-t) [1, 3]: 0.108 ± 0.0371 µg·h/mL
AUC(0-inf) [1, 4]: 0.127 ± 0.0403 µg·h/mL
Cmax [1, 5]: 0.0334 µg/mL
half-life [1, 6]: 2.61 ± 0.67 h
Tmax [1, 7]: 1.5 h
Source: Dosed Plasma (time points at which the compound was detected) [2]: 0.25 to 24 h

C[C@@H]1O[C@@H](O[C@H]2[C@H](O[C@H]3[C@H](O[C@H]4CC[C@@]5(C)[C@@H](CC[C@]6(C)[C@@H]5CC=C5[C@@H]7CC(C)(C)C[C@@H](O)[C@]7(C)CC[C@]56C)[C@@]4(C)CO)O[C@H](C(=O)O)[C@@H](O)[C@@H]3O)OC[C@@H](O)[C@@H]2O)[C@H](O)[C@H](O)[C@H]1O (single isomer, unassigned; peak 48) [Peak 48, Astragaloside VIII]
Source: Dosed Plasma (time points at which the compound was detected) [2]: 0.25 to 24 h

COc1ccc(-c2coc3cc(O)ccc3c2=O)cc1O [Peak 37, Calycosin]
double-peak phenomenon, time of second peak [1, 8]: 6 h
AUC(0-t) [1, 3]: 0.136 ± 0.0414 µg·h/mL
AUC(0-inf) [1, 4]: 0.155 ± 0.0377 µg·h/mL
Cmax [1, 5]: 0.033 µg/mL
half-life [1, 6]: 2.21 ± 0.92 h
Tmax [1, 7]: 1.5 h
Source: Dosed Plasma (time points at which the compound was detected) [2]: 0.25 to 24 h

CC(C)(O)[C@@H]1CC[C@](C)(C2[C@@H](O)C[C@@]3(C)[C@@H]4C[C@H](O[C@@H]5O[C@H](CO)[C@@H](O)[C@H](O)[C@H]5O)C5C(C)(C)[C@@H](O[C@@H]6OC[C@@H](O)[C@H](O)[C@H]6O)CC[C@@]56C[C@@]46CC[C@]23C)O1 (single isomer, unassigned) [Peak 45, Astragaloside IV]
AUC(0-t) ([1]; male, mouse, in vivo, 6 g/kg BW, oral RA, immunosuppressive Balb/c mice plasma, read-out: AUC0–t): 0.695 ± 0.179 µg·h/mL
Cmax ([1]; male, mouse, in vivo, 6 g/kg BW, oral RA, immunosuppressive Balb/c mice plasma, read-out: Cmax): 0.129 µg/mL
AUC(0-t) ([1]; male, mouse, in vivo, oral RA extract 6 g/kg BW, immunosuppressive Balb/c mice plasma, 0-36 h, read-out: AUC(0–t)): 0.695 ± 0.179 µg·h/mL
AUC(0-inf) ([1]; male, mouse, in vivo, oral RA extract 6 g/kg BW, immunosuppressive Balb/c mice plasma, read-out: AUC(0–∞)): 0.722 ± 0.197 µg·h/mL
Cmax ([1]; male, mouse, in vivo, oral RA extract 6 g/kg BW, immunosuppressive Balb/c mice plasma, read-out: Cmax): 0.129 µg/mL
half-life ([1]; male, mouse, in vivo, oral RA extract 6 g/kg BW, immunosuppressive Balb/c mice plasma, read-out: t1/2z (converted)): 3.48 ± 1.15 h
Tmax ([1]; male, mouse, in vivo, oral RA extract 6 g/kg BW, immunosuppressive Balb/c mice plasma, read-out: tmax): 1.5 h
Source: Dosed Plasma (time points at which the compound was detected) [2]: 0.25 to 24 h

Sulfated calycosin [Peak M1]
Source: Dosed Plasma (time points at which the compound was detected) [2]: 0.25 to 8 h

COc1ccc(-c2coc3cc(O)ccc3c2=O)cc1 [Peak 39, Formononetin]
double-peak phenomenon, time of second peak ([1]; male, Balb/c, mouse, in vivo, po): 6 h
AUC(0-inf) [1, 9]: 0.256 ± 0.0457 µg·h/mL
AUC(0-t) [1, 9]: 0.233 ± 0.0478 µg·h/mL
Cmax [1, 9]: 0.0479 µg/mL
Tmax [1, 9]: 2 h
half-life [1, 9]: 3.99 ± 1.03 h
Source: Dosed Plasma (time points at which the compound was detected) [2]: 0.25 to 24 h

COc1ccc(-c2coc3cc(O[C@@H]4O[C@H](CO)[C@@H](O)[C@H](O)[C@H]4O)ccc3c2=O)cc1 (single isomer, unassigned) [Peak 33, Ononin]
double-peak phenomenon, time of second peak [1, 8]: 4 h
AUC(0-t) [1, 3]: 0.228 ± 0.0597 µg·h/mL
AUC(0-inf) [1, 4]: 0.239 ± 0.0474 µg·h/mL
Cmax [1, 5]: 0.0514 µg/mL
half-life [1, 6]: 1.96 ± 0.34 h
Tmax [1, 7]: 1.5 h
Source: Dosed Plasma (time points at which the compound was detected) [2]: 0.25 to 24 h

COc1cc(/C=C/C(=O)O)ccc1O [Peak 25, Ferulic acid]
Source: Dosed Plasma (time points at which the compound was detected) [2]: 0.25 to 36 h

CC(C)C[C@H](N)C(=O)O (single isomer, unassigned) [Peak 9, Leucine]
Source: Dosed Plasma (time points at which the compound was detected) [2]: 0.25 to 36 h

N[C@@H](Cc1ccccc1)C(=O)O (single isomer, unassigned) [Peak 11, Phenylalanine]
Source: Dosed Plasma (time points at which the compound was detected) [2]: 0.25 to 36 h

C[N+](C)(C)CCO [Peak 4, Choline]
Source: Dosed Plasma (time points at which the compound was detected) [2]: 0.25 to 36 h

C[C@@H]1O[C@@H](O[C@H]2[C@H](O[C@H]3[C@H](O[C@H]4CC[C@@]5(C)[C@@H](CC[C@]6(C)[C@@H]5CC=C5[C@@H]7CC(C)(C)C[C@@H](O)[C@]7(C)CC[C@]56C)[C@@]4(C)CO)O[C@H](C(=O)O)[C@@H](O)[C@@H]3O)O[C@H](CO)[C@H](O)[C@@H]2O)[C@H](O)[C@H](O)[C@H]1O (single isomer, unassigned) [Peak 47, Soyasaponin I]
Source: Dosed Plasma (time points at which the compound was detected) [2]: 0.25 to 24 h

COc1ccc(-c2coc3cc(O[C@@H]4O[C@H](COC(C)=O)[C@@H](O)[C@H](O)[C@H]4O)ccc3c2=O)cc1 (single isomer, unassigned) [Peak 38, 6'-O-acetyl ononin]
Source: Dosed Plasma (time points at which the compound was detected) [2]: 0.25 to 8 h

CCCCC=CC=CC(=O)O (single isomer, unassigned) [Peak 35, 2,4-Nonadienic acid]
Source: Dosed Plasma (time points at which the compound was detected) [2]: 0.25 to 36 h

N[C@@H](Cc1ccc(O)cc1)C(=O)O (single isomer, unassigned) [Peak 16, Tyrosine]
Source: Dosed Plasma (time points at which the compound was detected) [2]: 0.25 to 36 h

N[C@@H](Cc1c[nH]c2ccccc12)C(=O)O (single isomer, unassigned) [Peak 14, Tryptophan]
Source: Dosed Plasma (time points at which the compound was detected) [2]: 0.25 to 36 h

COc1cc(/C=C/CO)cc(OC)c1O[C@@H]1O[C@H](CO)[C@@H](O)[C@H](O)[C@H]1O (single isomer, unassigned) [Peak 24, Syringin]
Source: Dosed Plasma (time points at which the compound was detected) [2]: 0.25 to 36 h

COc1cc(O)c2c(=O)c(O[C@@H]3O[C@H](CO)[C@@H](O)[C@H](O)[C@H]3O)c(-c3ccc(O[C@@H]4O[C@H](CO)[C@@H](O)[C@H](O)[C@H]4O)cc3)oc2c1 (single isomer, unassigned) [Peak 18, Rhamnocitrin 3,4'-di-O-glucoside]
Source: Dosed Plasma (time points at which the compound was detected) [2]: 0.25 to 6 h

NCCCC(=O)O [Peak 5, γ-Aminobutyric acid]
Source: Dosed Plasma (time points at which the compound was detected) [2]: 0.25 to 36 h

NC(=O)C[C@H](N)C(=O)O (single isomer, unassigned) [Peak 2, Asparagine]
Source: Dosed Plasma (time points at which the compound was detected) [2]: 1 to 36 h
